Data reported in US8937089B2, “Synergistic mixtures of anthranilamide invertebrate pest control agents” (priority 2004, dated 2015).

Key:
Experiment in all cases: whole plant or invertebrate
Type in all cases: in vivo
[1] = system: green peach aphid (Myzus persicae Sulzer); conditions: Green Peach Aphid; for mortality at 1000 ppm: rate 1000 ppm
Description: (§1) Test compounds were formulated using a solution containing 10% acetone, 90% water and 300 ppm X-77® Spreader Lo-Foam Formula non-ionic surfactant containing alkylarylpolyoxyethylene, free fatty acids, glycols and 2-propanol (Loveland Industries, Inc.) to provide the desired concentration in ppm. Formulated test solutions were then applied in 1 mL volumes through a SUJ2 atomizer nozzle with 1/8 JJ custom body (Spraying Systems Co.) positioned 1.27 cm (0.5 inches) above the top of each test unit.
(§2) For evaluating control of green peach aphid (Myzus persicae Sulzer) through contact and/or systemic means, each test unit consisted of a small open container with a 12- to 15-day-old radish plant inside. This was pre-infested by placing on a leaf of the test plant 30 to 40 aphids on a piece of leaf excised from a culture plant (cut-leaf method). The larvae moved onto the test plant as the leaf piece desiccated. After pre-infestation, the soil of the test unit was covered with a layer of sand.
(§3) Test compounds were formulated and sprayed as described in Test A, replicated three times. After spraying of the formulated test compound, each test unit was allowed to dry for 1 hour and then a black, screened cap was placed on top. The test units were held for 6 days in a growth chamber at 19-21° C. and 50-70% relative humidity.

[2] = system: cotton melon aphid (Aphis gossypii Glover)
Description: as §1
as §2, with “cotton melon” for “green peach”, “(Aphis gossypii Glover)” for “(Myzus persicae Sulzer)”, “6-” for “12-”, “7-day-old cotton” for “15-day-old radish”
as §3, with “described for” for “described in”, “Test A. The applications were” for “Test A,”, “test compounds,” for “test compound,”

[3] = system: silverleaf whitefly (Bemisia argentifolii Bellows and Perring); conditions: Table 2B
Description: For evaluating control of silverleaf whitefly (Bemisia argentifolii Bellows and Perring) through contact and/or systemic means, each test unit consisted of a small open container with a 12- to 14-day-old cotton plant inside. This was pre-infested by placing test units into cages infested with adult whiteflies so that oviposition on the cotton leaves could occur. The adults were removed from the plants with an air-blast nozzle, and the test units were capped. The test units were then stored 2 to 3 days before spraying.
as §1
The results for all experimental compositions in this test were replicated three times. After spraying of the formulated test composition, each test unit was allowed to dry for 1 hour and the cap removed. The test units were held for 13 days in a growth chamber at 28° C. and 50-70% relative humidity.

[4] = system: western flower thrip (Frankliniella occidentalis Pergande); conditions: single compound, spray, 7 days; for mortality at 1000 ppm: rate 1000 ppm
Description: as §1
For evaluating control of the western flower thrip (Frankliniella occidentalis Pergande) through contact and/or systemic means, each test unit consisted of a small open container with a 5- to 7-day-old bean (var. Soleil) plant inside.
Test solutions were formulated and sprayed with 3 replications as described for Test A. After spraying, the test units were allowed to dry for 1 hour, 22 to 27 adult thrips were added to each unit and then a black, screened cap was placed on top. The test units were held for 7 days at 25° C. and 45-55% relative humidity.

[5] = system: corn planthopper (Peregrines maidis); conditions: Corn Plant Hopper; for mortality at 0.1 ppm: rate 0.1 ppm; for mortality at 0.1 ppm / mortality at 0.2 ppm / mortality at 0.3 ppm: read-out: % mortality (obs); for mortality at 0.2 ppm: rate 0.2 ppm; for mortality at 0.3 ppm: rate 0.3 ppm
Description: as §1
For evaluating control of corn planthopper (Peregrines maidis) through contact and/or systemic means, each test unit consisted of a small open cylindrical container with a 3- to 4-day-old corn (maize) plant (spike) inside. White sand was added to the top of the soil prior to application. Test compounds were formulated and sprayed with 3 replications as described for Test A. After spraying, the test units were allowed to dry for 1 hour before they were post-infested with 10 to 20 corn planthoppers (18- to 20-day-old nymphs) by sprinkling them onto the sand with a salt shaker. A black, screened cap was placed on the top of each container. The test units were held for 6 days in a growth chamber at 19-21° C. and 50-70% relative humidity.

[6] = system: potato leafhopper (Empoasca fabae Harris); conditions: alone
Description: as §1
[…] White sand was added to the top of the soil, and one of the primary leaves was excised prior to application. Test compounds were formulated and sprayed with 3 replications as described for Test A. After spraying, the test units were allowed to dry for 1 hour before they were infested with 5 potato leafhoppers (18- to 21-day-old adults). A black, screened cap was placed on the top of each container. The test units were held for 6 days in a growth chamber at 19-21° C. and 50-70% relative humidity.

[7] = Myzus persicae, in Raphanus sativus, read-out: % mortality (obs)
[8] = Frankliniella occidentalis, 168 h, rate 10 ppm, read-out: % mortality (obs)
[9] = Frankliniella occidentalis, 168 h, read-out: % mortality (obs)

Compound: CCOP(=S)(OCC)Oc1nc(Cl)c(Cl)cc1Cl [Chlorpyrifos]
- mortality at 10 ppm ([1]; Myzus persicae, in Raphanus sativus, rate 10 ppm, read-out: % mortality (obs)): 5%
- mortality at 100 ppm ([1]; Myzus persicae, in Raphanus sativus, rate 100 ppm, read-out: % mortality (obs)): 18%
- mortality at 1000 ppm [1, 7]: 9%
- mortality at 1 ppm ([2]; Aphis gossypii, rate 1 ppm, read-out: % mortality (obs)): 26%
- mortality at 5 ppm ([2]; Aphis gossypii, rate 5 ppm, read-out: % mortality (obs)): 14%
- mortality at 50 ppm ([2]; Aphis gossypii, rate 50 ppm, read-out: % mortality (obs)): 13%
- mortality at 500 ppm ([3]; Bemisia argentifolii, in Gossypium hirsutum, rate 500 ppm, read-out: % mortality (obs)): 0%
- mortality at 1000 ppm ([3]; Bemisia argentifolii, in Gossypium hirsutum, rate 1000 ppm, read-out: % mortality (obs)): 0%
- mortality at 2000 ppm ([3]; Bemisia argentifolii, in Gossypium hirsutum, rate 2000 ppm, read-out: % mortality (obs)): 0%
- mortality at 10 ppm [4, 8]: 20%
- mortality at 100 ppm ([4]; Frankliniella occidentalis, 168 h, rate 100 ppm, read-out: % mortality (obs)): 10%
- mortality at 1000 ppm [4, 9]: 10%
- mortality at 0.1 ppm [5]: 46%
- mortality at 0.2 ppm [5]: 24%
- mortality at 0.3 ppm [5]: 19%
- mortality at 10 ppm ([6]; Empoasca fabae, rate 10 ppm, read-out: % mortality (obs)): 13%
- mortality at 100 ppm ([6]; Empoasca fabae, rate 100 ppm, read-out: % mortality (obs)): 0%
- mortality at 1000 ppm ([6]; Empoasca fabae, rate 1000 ppm, read-out: % mortality (obs)): 7%

Compound: Fipronil
- % mortality (obs) ([1]; rate 2 ppm): 17%
- % mortality (obs) ([1]; rate 4 ppm): 31%
- % mortality (obs) ([1]; rate 8 ppm): 50%
- % mortality (obs) ([2]; rate 2 ppm): 27%
- % mortality (obs) ([2]; rate 4 ppm): 44%
- % mortality (obs) ([2]; rate 8 ppm): 85%
- % mortality (obs) ([3]; rate 50 ppm): 1%
- % mortality (obs) ([3]; rate 100 ppm): 0%
- % mortality (obs) ([3]; rate 1000 ppm): 13%
- % mortality (obs) ([4]; rate 0.5 ppm): 100%
- % mortality (obs) ([4]; rate 2 ppm): 100%
- % mortality (obs) ([4]; rate 10 ppm): 100%
- % mortality (obs) ([5]; rate 0.5 ppm): 5%
- % mortality (obs) ([5]; rate 1 ppm): 41%
- % mortality (obs) ([5]; rate 1.5 ppm): 15%
- % mortality (obs) ([6]; rate 0.5 ppm): 7%
- % mortality (obs) ([6]; rate 1 ppm): 20%
- % mortality (obs) ([6]; rate 1.5 ppm): 27%

Compound: CC1(C)[C@H](C(=O)O[C@H](C#N)c2cccc(Oc3ccccc3)c2)[C@@H]1C=C(Br)Br [Deltamethrin]
- mortality at 250 ppm ([1]; Myzus persicae, in Raphanus sativus, rate 250 ppm, read-out: % mortality (obs)): 9%
- mortality at 300 ppm ([1]; Myzus persicae, in Raphanus sativus, rate 300 ppm, read-out: % mortality (obs)): 3%
- mortality at 1000 ppm [1, 7]: 9%
- mortality at 0.1 ppm ([2]; Aphis gossypii, rate 0.1 ppm, read-out: % mortality (obs)): 52%
- mortality at 0.2 ppm ([2]; Aphis gossypii, rate 0.2 ppm, read-out: % mortality (obs)): 39%
- mortality at 0.3 ppm ([2]; Aphis gossypii, rate 0.3 ppm, read-out: % mortality (obs)): 88%
- mortality at 30 ppm ([3]; Bemisia argentifolii, in Gossypium hirsutum, rate 30 ppm, read-out: % mortality (obs)): 2%
- mortality at 40 ppm ([3]; Bemisia argentifolii, in Gossypium hirsutum, rate 40 ppm, read-out: % mortality (obs)): 0%
- mortality at 50 ppm ([3]; Bemisia argentifolii, in Gossypium hirsutum, rate 50 ppm, read-out: % mortality (obs)): 1%
- mortality at 10 ppm [4, 8]: 70%
- mortality at 1000 ppm [4, 9]: 70%
- mortality at 3000 ppm ([4]; Frankliniella occidentalis, 168 h, rate 3000 ppm, read-out: % mortality (obs)): 50%
- mortality at 0.1 ppm [5]: 11%
- mortality at 0.2 ppm [5]: 14%
- mortality at 0.3 ppm [5]: 7%
- mortality at 0.1 ppm ([6]; Empoasca fabae, rate 0.1 ppm, read-out: % mortality (obs)): 7%
- mortality at 0.2 ppm ([6]; Empoasca fabae, rate 0.2 ppm, read-out: % mortality (obs)): 7%
- mortality at 1 ppm ([6]; Empoasca fabae, rate 1 ppm, read-out: % mortality (obs)): 60%
